According to patent US20110044952A1, “AMPLIFICATION OF CANCER-SPECIFIC ONCOLYTIC VIRAL INFECTION BY HISTONE DEACETYLASE INHIBITORS” (Ottawa Health Research Institute, priority 2007, published 2011):
Entries after “also recorded” stand apart in the source; their conditions may differ. Where two headings read alike, the source gives them in different places.

Columns and labels:
[1] = test system: DBT glioma cells; details: mouse
[2] = test system: PC3 cells; type: cell-based
[3] = test system: VSV-d51-GFP; type: cell-based; details: 24 hours
[4] = test system: VVDD; type: cell-based, vaccinia virus
[5] = test system: VSVΔ51 neutralizing antibody; details: mouse, in vivo
[6] = test system: VSV-d51-GFP; type: cell-based
[7] = test system: VSVΔ51-Luc; set-up: species or system BALB/c mice; details: mouse, in vivo, 20 mg/kg
[8] = test system: primary prostate cancer cells; type: cell-based
[9] = test system: normal PBMCs
[10] = test system: IFN antiviral response pathway; type: cell-based
[11] = test system: IFN antiviral response; type: cell-based
[12] = test system: VSV-d51-GFP
[13] = test system: VSVΔ51-Luc; set-up: species or system CD1 nude mice; details: mouse, in vivo
[14] = test system: IFN-α; type: cell-based, human
[15] = test system: B16-F10-lacZ; assay: B16-F10-lacZ lung metastasis model; type: in vivo, C57BI6 mice; details: 0.05 mg TSA i.p. daily to day 4 + 10^7 pfu VVdd i.v. twice; lungs day 14; p<0.05 vs PBS, VVdd or TSA single treatments
[16] = test system: VVDD; type: cell-based, vaccinia virus; details: TSA 0.156 μM 3 hours pre-treatment
[17] = test system: semliki forest virus (VA7); assay: Semliki forest virus (VA7) spread and titers in glioma cell lines; type: cell-based

| Molecule | VA7-mediated cytotoxicity (cell viability) [1] | VSV replication (GFP-positive cells, fluorescent microscopy) [6] | VSV replication (GFP, flow cytometry) [8] | VSV-GFP replication (flow cytometry) [9] | IRF3 phosphorylation [10] | activation of IRF7, ISG56 and RIG-I [10] | induction of MxA mRNA [11] | level of IFN-β mRNA [11] | sensitivity of normal tissue to VSV infection [12] | IFN production (IFN-α ELISA) [14] | JC-1 green fluorescence (mitochondrial membrane potential) [2] | activation of caspase 9 (immunoblot) [2] | number of Annexin V-positive apoptotic cells (flow cytometry) [2] | visible signs of cell death (phase-contrast microscopy) [2] | also measured |
| --- | --- | --- | --- | --- | --- | --- | --- | --- | --- | --- | --- | --- | --- | --- | --- |
| CCC(=O)CCCCC[C@@H]1NC(=O)[C@H]2CCCCN2C(=O)[C@H]([C@@H](C)CC)NC(=O)[C@H](Cc2cn(OC)c3ccccc23)NC1=O [Apicidin] | enhance VA7-mediated cytotoxicity | – | – | – | – | – | – | – | – | – | – | – | – | – | – |
| z-VAD-fmk | – | – | – | – | – | – | – | – | – | – | – | – | – | – | activation of apoptosis by VSV+MS-275 or VSV+SAHA (Annexin V) [2]: abrogated activation of apoptosis |
| IFN-α | – | – | – | – | – | – | – | – | – | – | – | – | – | – | cell permissiveness to viral infection (GFP expression) [3]: decrease cell permissiveness to viral infection |
| Nc1ccccc1NC(=O)c1ccc(CNC(=O)OCc2cccnc2)cc1 [MS-275] | – | allowed effective VSV replication | allowed effective VSV replication | did not increase VSV-GFP replication | allowed detection of IRF3 phosphorylation and concomitant degradation | inhibited | decreased the induction of MxA mRNA | significantly lower; also recorded: undetectable levels | specific towards cancer cells | significantly inhibited IFN production | increased JC-1 green fluorescence | significant activation | synergistically enhanced the number of Annexin V-positive apoptotic cells | not able to induce visible signs of cell death | replication of VVDD [4]: able to synergize the replication of VVDD in 4T1, B16 and SW620 cells; VSV neutralizing antibody production [5]: Inhibit; VSV-G specific antibody production (miniblot) [5]: Inhibit; viral replication (IVIS) [7]: more robust and persistent viral replication; VSV in spleen and lungs (24 hours): sensitive/permissive to VSV; VSV in spleen and lungs (72 hours): started to clear out; loss of total weight (mouse, in vivo): approximately 15%; survival of mice (mouse, in vivo): all of the mice survived; VSV biodistribution in major organs (mouse, in vivo, iv): comparable results of viral spread and replication in major organs; VSV antigen in tumors (IHC of frozen sections) [13]: more abundant presence of VSV antigen; viral replication in tumor-bearing mice (IVIS) ([13]; ip): more robust viral replication; VSV replication in SW620 tumors ([13]; iv): enhancing effect |
| CC(/C=C/C(=O)NO)=C\[C@@H](C)C(=O)c1ccc(N(C)C)cc1 [Trichostatin A] | – | – | – | – | – | – | – | – | – | – | – | – | – | – | number of lung metastases [15]: Reduces the Number of Metastases; VVdd spread (GFP photomicrographs) ([16]; MOI 0.1, 48 h): Increases; VVdd titers (pfu/ml) ([16]; MOI 0.1, 72 h): Increases |
| O=C(CCCCCCC(=O)Nc1ccccc1)NO [SAHA, suberoylanilide hydroxamic acid] | enhance VA7-mediated cytotoxicity | allowed effective VSV replication | allowed effective VSV replication | did not increase VSV-GFP replication | allowed detection of IRF3 phosphorylation and concomitant degradation | inhibited | decreased the induction of MxA mRNA | significantly lower; also recorded: undetectable levels | specific towards cancer cells | significantly inhibited IFN production | increased JC-1 green fluorescence | significant activation | synergistically enhanced the number of Annexin V-positive apoptotic cells | not able to induce visible signs of cell death | VA7 viral titers (pfu/ml) ([17]; SAHA 5 μM or Apicidin 1 μM 1 hour pre-treatment, MOI 0.01, DBT, CT2A, U251 cells, vs DMSO): enhanced the viral titers; Semliki forest virus spread (GFP photomicrographs) ([17]; SAHA 5 μM or Apicidin 1 μM, DBT cells, MOI 0.01, 30 hours): Enhance |
